Measurements from patent US11649255B2, “Indazoles as hematopoietic progenitor kinase 1 (HPK1) inhibitors and methods using same” (1st Biotherapeutics, Inc., priority 2020, dated 2023).

Molecular target: recombinant human HPK1 (Homo sapiens (Human), UniProt Q92918)
Experiment: HPK1 kinase assay (ADP-Glo)
Format: biochemical
Conditions: 25 μM ATP, MBP substrate
How it was run: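 Activity was read as ADP formed, detected by ADP-Glo luminescence after the reaction of 5 ng recombinant human HPK1 with MBP and ATP (stocks 0.5 μg/μl and 25 μM) for 40 min at 30 °C. Buffer was Tris pH 7.5 with MgCl2, BSA and DTT, with compound in 0.5% DMSO. IC50 came from inhibition curves.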

recombinant human HPK1, sequence (Q92918 whole entry): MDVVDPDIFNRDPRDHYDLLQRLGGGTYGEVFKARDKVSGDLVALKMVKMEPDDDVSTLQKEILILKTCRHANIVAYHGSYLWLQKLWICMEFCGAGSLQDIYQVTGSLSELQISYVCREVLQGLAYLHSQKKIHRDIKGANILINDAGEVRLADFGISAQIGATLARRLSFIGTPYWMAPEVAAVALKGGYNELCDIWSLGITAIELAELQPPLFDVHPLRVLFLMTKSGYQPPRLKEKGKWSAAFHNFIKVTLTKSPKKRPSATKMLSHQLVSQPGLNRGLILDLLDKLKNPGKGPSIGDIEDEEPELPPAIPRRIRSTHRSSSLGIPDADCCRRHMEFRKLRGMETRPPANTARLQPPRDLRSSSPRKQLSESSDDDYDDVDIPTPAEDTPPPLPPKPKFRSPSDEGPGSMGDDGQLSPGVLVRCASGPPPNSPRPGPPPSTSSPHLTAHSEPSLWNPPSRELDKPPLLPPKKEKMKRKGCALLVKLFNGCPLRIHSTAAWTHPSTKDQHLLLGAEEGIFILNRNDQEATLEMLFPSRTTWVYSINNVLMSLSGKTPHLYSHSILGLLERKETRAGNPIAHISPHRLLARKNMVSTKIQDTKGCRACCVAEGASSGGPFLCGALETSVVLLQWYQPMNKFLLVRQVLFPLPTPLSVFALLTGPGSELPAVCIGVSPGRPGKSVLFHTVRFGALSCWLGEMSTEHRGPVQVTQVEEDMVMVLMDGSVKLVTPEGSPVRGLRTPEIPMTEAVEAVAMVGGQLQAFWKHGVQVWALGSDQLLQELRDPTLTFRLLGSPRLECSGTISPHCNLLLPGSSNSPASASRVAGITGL

SMILES	IC50
CCc1c(F)c(SCC(=O)O)c2[nH]ncc2c1-c1ccc2nc(NC(=O)[C@@H]3C[C@@H]3F)sc2n1 [Example 168, 2-((5-ethyl-6-fluoro-4-(2-((1S,2S)-2-fluorocyclopropane-1-carboxamido)thiazolo[5,4-b]pyridin-5-yl)-1H-indazol-7-yl)thio)acetic acid]	0.101 to 0.5 µM
O=C(Nc1nc2ccc(-c3c(F)c(C(F)(F)F)cc4[nH]ncc34)nc2s1)[C@@H]1C[C@@H]1F [Example 171, (1S,2S)-2-fluoro-N-(5-(5-fluoro-6-(trifluoromethyl)-1H-indazol-4-yl)thiazolo[5,4-b]pyridin-2-yl)cyclopropane-1-carboxamide]	> 1 µM
CCc1c(F)c(F)c2[nH]ncc2c1-c1ccc2nc(NC(=O)[C@@H]3C[C@@H]3F)sc2n1 [Example 176, (1S,2S)-N-(5-(5-ethyl-6,7-difluoro-1H-indazol-4-yl)thiazolo[5,4-b]pyridin-2-yl)-2-fluorocyclopropane-1-carboxamide]	< 0.1 µM
Cc1c(F)c([S+](C)[O-])c2[nH]ncc2c1-c1ccc2nc(NC(=O)[C@@H]3C[C@@H]3F)sc2n1 (stereo partly drawn) [Example 177, (1S,2S)-2-fluoro-N-(5-(6-fluoro-5-methyl-7-(methylsulfinyl)-1H-indazol-4-yl)thiazolo[5,4-b]pyridin-2-yl)cyclopropane-1-carboxamide]	0.101 to 0.5 µM
CCOc1c(F)c(CC)c(-c2ccc3nc(NC(=O)[C@@H]4C[C@@H]4F)sc3n2)c2cn[nH]c12 [Example 178, (1S,2S)-N-(5-(7-ethoxy-5-ethyl-6-fluoro-1H-indazol-4-yl)thiazolo[5,4-b]pyridin-2-yl)-2-fluorocyclopropane-1-carboxamide]	< 0.1 µM
CC(=O)Nc1c(F)c(Cl)c(-c2ccc3nc(NC(=O)[C@@H]4C[C@@H]4F)sc3n2)c2cn[nH]c12 [Example 179, (1S,2S)-N-(5-(7-acetamido-5-chloro-6-fluoro-1H-indazol-4-yl)thiazolo[5,4-b]pyridin-2-yl)-2-fluorocyclopropane-1-carboxamide]	< 0.1 µM
C[S+]([O-])c1c(F)c(Cl)c(-c2ccc3nc(NC(=O)[C@@H]4C[C@@H]4F)sc3n2)c2cn[nH]c12 (stereo partly drawn) [Example 180, (1S,2S)-N-(5-(5-chloro-6-fluoro-7-(methylsulfinyl)-1H-indazol-4-yl)thiazolo[5,4-b]pyridin-2-yl)-2-fluorocyclopropane-1-carboxamide]	0.101 to 0.5 µM
CC(=O)Nc1c(F)c(C)c(-c2ccc3nc(NC(=O)[C@@H]4C[C@@H]4F)sc3n2)c2cn[nH]c12 [Example 181, (1S,2S)-N-(5-(7-acetamido-6-fluoro-5-methyl-1H-indazol-4-yl)thiazolo[5,4-b]pyridin-2-yl)-2-fluorocyclopropane-1-carboxamide]	0.101 to 0.5 µM
COC(=O)c1c(F)c(C)c(-c2ccc3nc(NC(=O)[C@@H]4C[C@@H]4F)sc3n2)c2cn[nH]c12 [Example 183, methyl 6-fluoro-4-(2-((1S,2S)-2-fluorocyclopropane-1-carboxamido)thiazolo[5,4-b]pyridin-5-yl)-5-methyl-1H-indazole-7-carboxylate]	< 0.1 µM
CS(=O)(=O)c1c(F)c(Cl)c(-c2ccc3nc(NC(=O)[C@@H]4C[C@@H]4F)sc3n2)c2cn[nH]c12 [Example 185, (1S,2S)-N-(5-(5-chloro-6-fluoro-7-(methylsulfonyl)-1H-indazol-4-yl)thiazolo[5,4-b]pyridin-2-yl)-2-fluorocyclopropane-1-carboxamide]	0.101 to 0.5 µM
Cc1c(F)c(F)c2[nH]ncc2c1-c1ccc2nc(NC(=O)[C@@H]3C[C@@H]3F)sc2n1 [Example 186, (1S,2S)-N-(5-(6,7-difluoro-5-methyl-1H-indazol-4-yl)thiazolo[5,4-b]pyridin-2-yl)-2-fluorocyclopropane-1-carboxamide]	< 0.1 µM
CSc1c(F)c(F)c2[nH]ncc2c1-c1ccc2nc(NC(=O)[C@@H]3C[C@@H]3F)sc2n1 [Example 187, (1S,2S)-N-(5-(6,7-difluoro-5-(methylthio)-1H-indazol-4-yl)thiazolo[5,4-b]pyridin-2-yl)-2-fluorocyclopropane-1-carboxamide]	< 0.1 µM
Cc1c(F)c(C(=O)O)c2[nH]ncc2c1-c1ccc2nc(NC(=O)[C@@H]3C[C@@H]3F)sc2n1 [Example 188, 6-fluoro-4-(2-((1S,2S)-2-fluorocyclopropane-1-carboxamido)thiazolo[5,4-b]pyridin-5-yl)-5-methyl-1H-indazole-7-carboxylic acid]	> 1 µM
CC(=O)N(C)c1c(F)c(Cl)c(-c2ccc3nc(NC(=O)[C@@H]4C[C@@H]4F)sc3n2)c2cn[nH]c12 [Example 189, (1S,2S)-N-(5-(5-chloro-6-fluoro-7-(N-methylacetamido)-1H-indazol-4-yl)thiazolo[5,4-b]pyridin-2-yl)-2-fluorocyclopropane-1-carboxamide]	< 0.1 µM
CNNc1c(F)c(Cl)c(-c2ccc3nc(NC(=O)[C@@H]4C[C@@H]4F)sc3n2)c2cn[nH]c12 [Example 191, (1S,2S)-N-(5-(5-chloro-6-fluoro-7-(2-methylhydrazineyl)-1H-indazol-4-yl)thiazolo[5,4-b]pyridin-2-yl)-2-fluorocyclopropane-1-carboxamide]	< 0.1 µM
CN(Nc1c(F)c(Cl)c(-c2ccc3nc(NC(=O)[C@@H]4C[C@@H]4F)sc3n2)c2cn[nH]c12)C(=O)OC(C)(C)C [Example 192, tert-butyl 2-(5-chloro-6-fluoro-4-(2-((1S,2S)-2-fluorocyclopropane-1-carboxamido)thiazolo[5,4-b]pyridin-5-yl)-1H-indazol-7-yl)-1-methylhydrazine-1-carboxylate]	< 0.1 µM
CNC(=O)c1c(F)c(Cl)c(-c2ccc3nc(NC(=O)[C@@H]4C[C@@H]4F)sc3n2)c2cn[nH]c12 [Example 195, 5-chloro-6-fluoro-4-(2-((1S,2S)-2-fluorocyclopropane-1-carboxamido)thiazolo[5,4-b]pyridin-5-yl)-N-methyl-1H-indazole-7-carboxamide]	0.101 to 0.5 µM
Cc1c(F)c(C(=O)N(C)C)c2[nH]ncc2c1-c1ccc2nc(NC(=O)[C@@H]3C[C@@H]3F)sc2n1 [Example 197, 6-fluoro-4-(2-((1S,2S)-2-fluorocyclopropane-1-carboxamido)thiazolo[5,4-b]pyridin-5-yl)-N,N,5-trimethyl-1H-indazole-7-carboxamide]	< 0.1 µM
O=C(Nc1nc2ccc(-c3c(C(F)(F)F)c(F)c(Cl)c4[nH]ncc34)nc2s1)[C@@H]1C[C@@H]1F [Example 198, (1S,2S)-N-(5-(7-chloro-6-fluoro-5-(trifluoromethyl)-1H-indazol-4-yl)thiazolo[5,4-b]pyridin-2-yl)-2-fluorocyclopropane-1-carboxamide]	< 0.1 µM
CCc1c(F)c(N(C)CC)c2[nH]ncc2c1-c1ccc2nc(NC(=O)[C@@H]3C[C@@H]3F)sc2n1 [Example 200, (1S,2S)-N-(5-(5-ethyl-7-(ethyl(methyl)amino)-6-fluoro-1H-indazol-4-yl)thiazolo[5,4-b]pyridin-2-yl)-2-fluorocyclopropane-1-carboxamide]	< 0.1 µM
CCOc1c(F)cc2[nH]ncc2c1-c1ccc2nc(NC(=O)[C@@H]3C[C@@H]3F)sc2n1 [Example 201, (1S,2S)-N-(5-(5-ethoxy-6-fluoro-1H-indazol-4-yl)thiazolo[5,4-b]pyridin-2-yl)-2-fluorocyclopropane-1-carboxamide]	> 1 µM
